By IC50 is commonly meant the concentration at which inhibition is half-maximal.

Molecules are shown by their SMILES. Read-outs that look alike come from different tables or passages of the source.

The values that follow come from patent publication US9708336B2, “Metallo-beta-lactamase inhibitors” (priority 2014, dated 2017).

The target of one experiment is NDM-1 (Klebsiella pneumoniae, UniProt C7C422). Description: biochemical. It is filed as biochemical. Particulars: NDM-1 enzyme, CCF2-FA fluorescence assay; read-out: NDM-1 IC50.
NDM-1, sequence (C7C422 whole entry, looked up, species assumed): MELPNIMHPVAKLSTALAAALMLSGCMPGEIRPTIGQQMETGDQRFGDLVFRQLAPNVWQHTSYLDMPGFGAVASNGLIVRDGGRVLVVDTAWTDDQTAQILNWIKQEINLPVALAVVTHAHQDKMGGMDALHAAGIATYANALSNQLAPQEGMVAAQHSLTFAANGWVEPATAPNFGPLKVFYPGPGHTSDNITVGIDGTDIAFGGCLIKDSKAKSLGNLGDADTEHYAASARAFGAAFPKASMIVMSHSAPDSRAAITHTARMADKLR
The target in a further experiment is IMP-1 (Serratia marcescens, UniProt P52699). Description: biochemical. It is filed as biochemical. The settings on record: IMP-1 enzyme, CCF2-FA fluorescence assay; read-out: IMP-1 IC50.
IMP-1, sequence (P52699 whole entry, looked up): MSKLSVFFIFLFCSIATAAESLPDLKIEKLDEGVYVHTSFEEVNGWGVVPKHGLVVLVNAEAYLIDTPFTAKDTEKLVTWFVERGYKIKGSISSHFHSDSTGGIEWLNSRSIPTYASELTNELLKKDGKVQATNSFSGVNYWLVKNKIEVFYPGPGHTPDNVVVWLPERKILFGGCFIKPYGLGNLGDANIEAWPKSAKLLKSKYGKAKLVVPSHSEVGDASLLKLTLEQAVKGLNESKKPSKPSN
The next experiment concerns the target VIM-1 (Pseudomonas aeruginosa (strain ATCC 15692 / DSM 22644 / CIP 104116 / JCM 14847 / LMG 12228 / 1C / PRS 101 / PAO1), UniProt A0A0F7KYQ8). Description: Enzyme activity: determination of IC50, fluorescence assay with CCF2-FA substrate (VIM-1). Type of experiment: biochemical. Particulars: CCF2-FA fluorescence assay.
The subject of experiment [1] is Escherichia coli expressing NDM-1 (CLB30016). Nature of the experiment: Antibiotic potentiation activity: synergistic concentration (MITC95) with imipenem, OD600 growth. It is filed as cell-based. The settings on record: Escherichia coli expressing NDM-1 (CLB30016), 95% growth inhibition. The gist of the method: (§1)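 Inoculum: saline suspension of overnight colonies, 1:100 into 1.1× CAMHB. Imipenem 4 μg/ml final (alt. 1 μg/ml) + compound; 35 °C, 22–24 h; absorbance read-out.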

Experiment [2] relates to Klebsiella pneumoniae expressing VIM-1 (IHMA599644). The description is as above. It is filed as cell-based. Particulars: Klebsiella pneumoniae expressing VIM-1 (IHMA599644), 95% growth inhibition. A digest of the protocol: as §1
Experiment [3] deals with Serratia marcescens expressing IMP-1 (CL5741). Described as above. The settings on record: Serratia marcescens expressing IMP-1 (CL5741), 95% growth inhibition. It is filed as cell-based. A digest of the protocol: as §1
Where [4] appears, read: VIM-1 enzyme, read-out: VIM-1 IC50.

As for `CS(=O)(=O)Nc1ccc(-c2ccc(C(F)(F)F)c(S(N)(=O)=O)c2-c2nn[nH]n2)cc1` [Example 274, 4′-(methylsulfonamido)-2-(2H-tetrazol-5-yl)-4-(trifluoromethyl)-[1,1′-biphenyl]-3-sulfonamide], the half-inhibitory concentration (IC50) on NDM-1, on IMP-1 and on VIM-1 (setting [4]) was 0.637 nM throughout. Further, the “Escherichia coli MITC95” value in experiment [1] is 0.7813 µM. Moreover, the “Klebsiella pneumoniae MITC95” value in experiment [2] is 4.688 µM. Besides, the “Serratia marcescens MITC95” value in experiment [3] was found to be 0.1953 µM.

`NS(=O)(=O)c1c(C2CC2)ccc(-c2ccnc3ccccc23)c1-c1nn[nH]n1` [Example 275, 6-cyclopropyl-3-(quinolin-4-yl)-2-(2H-tetrazol-5-yl)benzenesulfonamide]: the 50% inhibitory concentration (IC50) at NDM-1 amounted to 3.68 nM; at IMP-1, 6.7 nM; at VIM-1 (setting [4]), 0.637 nM. Further, in experiment [1], the “Escherichia coli MITC95” value came to 3.125 µM. Moreover, the “Klebsiella pneumoniae MITC95” value in experiment [2] was determined as 9.375 µM. In addition, the “Serratia marcescens MITC95” value in experiment [3] was 0.7813 µM.

In the case of `NS(=O)(=O)c1c(Cl)ccc(-c2ccc(C3CCNCC3)cc2)c1-c1nn[nH]n1` [Example 276, 4-chloro-4′-(piperidin-4-yl)-2-(2H-tetrazol-5-yl)-[1,1′-biphenyl]-3-sulfonamide], the 50% inhibitory concentration (IC50) at NDM-1 stood at 5.51 nM; at IMP-1, 8.75 nM; against VIM-1 (VIM-1 IC50, VIM-1 enzyme) it was 3.38 nM. In addition, the “Escherichia coli MITC95” value in experiment [1] is 0.7813 µM. For the same compound, the “Klebsiella pneumoniae MITC95” value in experiment [2] came out at 1.563 µM. Moreover, the “Serratia marcescens MITC95” value in experiment [3] is 0.3906 µM.

Take `NCc1nccc2cc(-c3cccc(S(N)(=O)=O)c3-c3nn[nH]n3)ccc12` [Example 280, 3-(1-(aminomethyl)isoquinolin-6-yl)-2-(2H-tetrazol-5-yl)benzenesulfonamide]: the half-maximal inhibitory concentration (IC50) came out at 1.44 nM on NDM-1; 15.8 nM at IMP-1; 20.4 nM against VIM-1 (VIM-1 IC50, VIM-1 enzyme). Also, in experiment [1], the “Escherichia coli MITC95” value came out at 0.5859 µM. Besides, the “Klebsiella pneumoniae MITC95” value in experiment [2] worked out at 3.125 µM. The “Serratia marcescens MITC95” value in experiment [3] came out at 6.25 µM.

As for `NC(=O)c1nccc2cc(-c3cccc(S(N)(=O)=O)c3-c3nn[nH]n3)ccc12` [Example 281, 6-(3-sulfamoyl-2-(2H-tetrazol-5-yl)phenyl)isoquinoline-1-carboxamide], the IC50 on NDM-1 was 0.342 nM; on IMP-1, 42.9 nM; at VIM-1 (setting [4]), 12.2 nM. Further, the “Escherichia coli MITC95” value in experiment [1] was 0.7813 µM. Also, the “Klebsiella pneumoniae MITC95” value in experiment [2] was 12.5 µM. For the same compound, in experiment [3], the “Serratia marcescens MITC95” value came out at 3.125 µM.

In the case of `Cl.Cl.NC1(c2ccc(-c3cccc(S(N)(=O)=O)c3-c3nn[nH]n3)cc2)CCNCC1` [Example 283, 4′-(4-aminopiperidin-4-yl)-2-(2H-tetrazol-5-yl)-[1,1′-biphenyl]-3-sulfonamide dihydrochloride], the half-maximal inhibitory concentration (IC50) at NDM-1 amounted to 33 nM; on IMP-1, 500 nM; at VIM-1 (setting [4]), 308 nM. Also, the “Escherichia coli MITC95” value in experiment [1] amounted to 0.5859 µM. For the same compound, the “Klebsiella pneumoniae MITC95” value in experiment [2] worked out at 12.5 µM. In addition, in experiment [3], the “Serratia marcescens MITC95” value was 2.344 µM.

Regarding `NS(=O)(=O)c1cccc(-c2ccc(C3(O)CCNC3)cc2)c1-c1nn[nH]n1` (stereo not drawn) [Example 284, 4′-(3-hydroxypyrrolidin-3-yl)-2-(2H-tetrazol-5-yl)-[1,1′-biphenyl]-3-sulfonamide], the IC50 worked out at 12.7 nM at NDM-1, 102 nM at IMP-1 and 55.5 nM at VIM-1 (setting [4]). In experiment [1], the “Escherichia coli MITC95” value worked out at 0.7813 µM. For the same compound, the “Klebsiella pneumoniae MITC95” value in experiment [2] stood at 4.688 µM. In experiment [3], the “Serratia marcescens MITC95” value is 1.563 µM.

Turning to `NS(=O)(=O)c1cccc(-c2ccc(C3=CCNC3)cc2)c1-c1nn[nH]n1` [Example 285, 4′-(2,5-dihydro-1H-pyrrol-3-yl)-2-(2H-tetrazol-5-yl)-[1,1′-biphenyl]-3-sulfonamide], the results for the IC50 on NDM-1, on IMP-1 and at VIM-1 (setting [4]) were 2.83 nM, 25.1 nM and 18 nM, respectively. Also, the “Escherichia coli MITC95” value in experiment [1] worked out at 0.3906 µM. Further, the “Klebsiella pneumoniae MITC95” value in experiment [2] came to 3.125 µM. Further, in experiment [3], the “Serratia marcescens MITC95” value came out at 0.7813 µM.

As to `NCc1ccc2cc(-c3cccc(S(N)(=O)=O)c3-c3nn[nH]n3)ccc2n1` [Example 286, 3-(2-(aminomethyl)quinolin-6-yl)-2-(2H-tetrazol-5-yl)benzenesulfonamide], the IC50 on NDM-1 amounted to 6.14 nM; at IMP-1, 204 nM; on VIM-1 (setting [4]) it was 12.7 nM. The “Escherichia coli MITC95” value in experiment [1] came out at 0.7813 µM. The “Klebsiella pneumoniae MITC95” value in experiment [2] is 3.125 µM. In addition, the “Serratia marcescens MITC95” value in experiment [3] amounted to 3.125 µM.

On to `NS(=O)(=O)c1cccc(-c2ccc3nc(C(=O)O)ccc3c2)c1-c1nn[nH]n1` [Example 287, 6-(3-sulfamoyl-2-(2H-tetrazol-5-yl)phenyl)quinoline-2-carboxylic acid], for which the IC50 on NDM-1 worked out at 0.734 nM; at IMP-1, 159 nM; on VIM-1 (setting [4]) it was 34 nM. Further, in experiment [1], the “Escherichia coli MITC95” value came to 9.375 µM. Also, the “Klebsiella pneumoniae MITC95” value in experiment [2] worked out at 37.5 µM. The “Serratia marcescens MITC95” value in experiment [3] came out at 18.75 µM.

On to `NC(=O)c1ccc2cc(-c3cccc(S(N)(=O)=O)c3-c3nn[nH]n3)ccc2n1` [Example 288, 6-(3-sulfamoyl-2-(2H-tetrazol-5-yl)phenyl)quinoline-2-carboxamide], for which the half-maximal inhibitory concentration (IC50) at NDM-1 was determined as 1.31 nM; at IMP-1 it was 88.9 nM; on VIM-1 (setting [4]), 9.78 nM. Also, the “Escherichia coli MITC95” value in experiment [1] stood at 1.563 µM. In addition, the “Klebsiella pneumoniae MITC95” value in experiment [2] is 75 µM. Besides, in experiment [3], the “Serratia marcescens MITC95” value was 9.375 µM.

Regarding `NS(=O)(=O)c1cccc(-c2ccc(OC3CCNCC3)cc2)c1-c1nnn[nH]1` [Example 316, 4′-(piperidin-4-yloxy)-2-(1H-tetrazol-5-yl)-[1,1′-biphenyl]-3-sulfonamide], the concentration for half-maximal inhibition (IC50) was 5.11 nM at NDM-1, 69.3 nM on IMP-1 and 67.7 nM at VIM-1 (setting [4]). Moreover, the “Escherichia coli MITC95” value in experiment [1] came out at 0.9766 µM. Besides, the “Klebsiella pneumoniae MITC95” value in experiment [2] stood at 12.5 µM. Further, in experiment [3], the “Serratia marcescens MITC95” value was determined as 2.344 µM.

Regarding `NS(=O)(=O)c1cccc(-c2ccc(CNCCN3CCCC3)cc2)c1-c1nn[nH]n1` [Example 328, 4′-(((2-(pyrrolidin-1-yl)ethyl)amino)methyl)-2-(2H-tetrazol-5-yl)-[1,1′-biphenyl]-3-sulfonamide], the results for the IC50 on NDM-1, at IMP-1 and at VIM-1 (setting [4]) were 20.4 nM, 325 nM and 473 nM, respectively. Moreover, the “Escherichia coli MITC95” value in experiment [1] was determined as 1.563 µM. In experiment [2], the “Klebsiella pneumoniae MITC95” value worked out at 125 µM. For the same compound, in experiment [3], the “Serratia marcescens MITC95” value is 6.25 µM.

As for `CN1CCN(Cc2ccc(-c3cccc(S(N)(=O)=O)c3-c3nnn[nH]3)cc2)CC1` [Example 329, 4′-((4-methylpiperazin-1-yl)methyl)-2-(1H-tetrazol-5-yl)-[1,1′-biphenyl]-3-sulfonamide], the half-maximal inhibitory concentration (IC50) stood at 8.26 nM at NDM-1, 87.1 nM at IMP-1 and 683 nM at VIM-1 (setting [4]). In addition, the “Escherichia coli MITC95” value in experiment [1] turned out to be 0.7813 µM. Moreover, the “Klebsiella pneumoniae MITC95” value in experiment [2] was determined as 200 µM. The “Serratia marcescens MITC95” value in experiment [3] turned out to be 1.563 µM.
